# Data from patent publication US9067894B1, “Compound, composition, and method of activating GIRK potassium channel and use of same for treating conditions of interest” (Vanderbilt University, priority 2013, dated 2015).
# “And” between values parts separate entries of the source, which are not always exact repeats. Equal entries are not always repeated.
# How the values were obtained:
# GIRK1/2 = target: T1, GIRK1/2 (Homo sapiens, UniProt P48051+P48549); experiment: Thallium flux, pertussis toxin-treated cells co-expressing mGlu8 and GIRK1/2; assay type: cell-based; parameters: host or cells: HEK-293; settings: 600 ng/ml pertussis toxin; VU0456810 10 μM, glutamate 100 μM
# T1 sequence (P48549 1-501): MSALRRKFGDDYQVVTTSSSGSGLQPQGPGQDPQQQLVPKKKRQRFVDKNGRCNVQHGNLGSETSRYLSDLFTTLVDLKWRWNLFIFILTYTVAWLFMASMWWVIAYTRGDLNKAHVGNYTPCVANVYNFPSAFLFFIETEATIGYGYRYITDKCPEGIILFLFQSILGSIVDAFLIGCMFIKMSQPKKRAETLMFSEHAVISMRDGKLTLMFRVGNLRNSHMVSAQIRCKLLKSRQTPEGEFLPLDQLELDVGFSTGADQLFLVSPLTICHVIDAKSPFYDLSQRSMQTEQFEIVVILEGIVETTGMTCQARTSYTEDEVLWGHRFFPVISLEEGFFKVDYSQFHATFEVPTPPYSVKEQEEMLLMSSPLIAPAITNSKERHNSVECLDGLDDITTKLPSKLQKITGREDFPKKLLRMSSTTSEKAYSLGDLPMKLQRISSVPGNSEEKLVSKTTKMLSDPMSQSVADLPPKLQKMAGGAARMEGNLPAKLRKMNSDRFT
# T1 sequence (P48051 1-423): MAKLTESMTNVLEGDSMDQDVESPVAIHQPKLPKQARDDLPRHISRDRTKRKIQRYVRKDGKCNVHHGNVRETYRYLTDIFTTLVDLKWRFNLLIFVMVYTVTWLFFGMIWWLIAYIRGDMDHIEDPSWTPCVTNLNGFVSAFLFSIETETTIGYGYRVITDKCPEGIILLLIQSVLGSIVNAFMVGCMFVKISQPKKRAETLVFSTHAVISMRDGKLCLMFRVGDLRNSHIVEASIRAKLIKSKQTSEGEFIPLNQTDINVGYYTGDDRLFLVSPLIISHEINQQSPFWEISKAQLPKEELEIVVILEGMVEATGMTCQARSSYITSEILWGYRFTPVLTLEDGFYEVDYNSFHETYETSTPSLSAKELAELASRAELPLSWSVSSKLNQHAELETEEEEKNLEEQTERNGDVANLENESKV
# Excerpt: Cell Line Construction and Cell Culture. HEK-293 cells co-expressing human GIRK1/2 and rat mGlu8 were generated as previously described (Niswender et al., 2008). A HEK-293 cell line (ATCC, Manassas, Va.) expressing human GIRK1 and human GIRK2 was constructed by transfecting HEK-293 cells with GIRK1 and GIRK2 (Origene, Rockville, Md.) cloned into the pBudCE4.1 vector (Life Technologies, Carlsbad, Calif.) using FuGene 6 (Promega, Madison, Wis.) transfection reagent. Unless otherwise noted, other ion channel-expressing cells were prepared by transfecting HEK-293 cells with individual or combinations of subunits: GIRK1, pCMV6-A-BSD; GIRK2, pCMV6-A-puro; GIRK3, pCMV6-A-hygro; GIRK4, pCMV6-A-AC; Kv7.4, pIRESneo3. The Kir2.1 and hERG-expressing cell lines were made by transfecting T-REx-293 cells (Life Technologies, Carlsbad, Calif.) with Kir2.1 and Kv11.1, respectively, cloned into pcDNA5TO. Monoclonal cell lines were produced by limiting-dilution cloning of antibiotic-resistant cells and functional selection using the thallium flux assay described below. Unless otherwise noted, cells were maintained in Minimal Essential Medium, Alpha Medium (Mediatech, Manassas, Va.) supplemented with 10% fetal bovine serum (Sigma-Aldrich, Saint Louis, Mo.) and GlutaGro (Mediatech, Manassas, Va.), referred to henceforth as cell culture medium. […]
# GIRK = settings: read-out: potency / reported EC50 as GIRK activator; cited from earlier work
# [1] = Maximal electroshock (MES) model of epilepsy; assay type: in vivo, mouse; settings: mice, i.p.; VU0456810 60 mg/kg, sodium valproate 150 mg/kg; vs vehicle
# Method: MES stimulation was applied, 30 minutes after injection, through transauricular (ear-clip) electrodes from an electroshock apparatus, HSE Shock Stimulator Type 221, (Harvard Apparatus, Holliston, Mass.) using the following parameters: 100-mA fixed current, a 50-60-Hz pulse frequency, a 0.6-ms pulse width and a 0.3-s stimulus duration. Animals were restrained by hand when applying the electrodes and released at the moment of stimulation to permit observation of the seizure throughout its entire course. Upon completion of the electrical stimulus, the amount of time until death was recorded. […] In this modified MES test, the electrical stimulus that was applied was sufficient to induce seizures and death from maximal seizure in 100% of the control mice.
# (§1) In all cases, experiments were conducted in a blind manner with respect to the experimenters. Data were evaluated in Excel using one-tailed, unpaired Student's t-test, assuming populations with unequal variance.
# [2] = Pentylenetetrazol (PTZ)-induced seizure model; assay type: in vivo, mouse; settings: mice, i.p.; VU0456810 60 mg/kg, sodium valproate 150 mg/kg; PTZ 40 mg/kg; 20 minute timeframe
# Method: After thirty minutes, PTZ was administered intraperitoneally (i.p., 40 mg/kg). Immediately following administration of PTZ, the amount of time elapsed before the first occurrence of tremors, tonic-clonic seizures, convulsion, and death was recorded. All mice were subject to a 20-minute post-[…] cutoff.
# as §1
smiles,measurement,setting,value
"N[C@@H](CCC(=O)O)C(=O)O [glutamate, reference compound]",effect of pertussis toxin treatment on evoked thallium flux,GIRK1/2,abolishing
C[C@@H]1O[C@@H](O[C@H]2[C@H](Oc3cc(O)c4c(c3)O[C@H](c3ccc(O)cc3)CC4=O)O[C@H](CO)[C@@H](O)[C@@H]2O)[C@H](O)[C@H](O)[C@H]1O [naringin],EC50,GIRK,~100 µM and > 100 µM
"CCCC(CCC)C(=O)[O-].[Na+] [sodium valproate, reference compound]",latency of seizure onset,[1],highly significant delays in seizure onset
same,animals experiencing convulsions from PTZ treatment,[2],significant decrease
same,animals surviving PTZ treatment,[2],significant increase
